Target: T1, HPK1 (Homo sapiens, UniProt Q92918)
T1 construct: A HiBiT tag was introduced by CRISPR on the N terminus of HPK1 in Jurkat cells; host or cells: Jurkat cells (ATCC TIB-152), monoclonal line with CRISPR knock-in of HiBiT at the endogenous HPK1 locus
Assay: HPK1 Cellular HiBit Degradation Assay
Type: cell-based
Conditions: HiBiT HPK1 Jurkat cells, 24 hrs; for DC50: concentration at which 50% of HPK1 was remaining, read-out: DC50 Category; for Dmax: Jurkat, maximum degradation vs DMSO vehicle control, read-out: Dmax Category
Method in brief: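 HiBiT-HPK1 Jurkat (CRISPR, N-term tag), 3×10^4 cells/well, RPMI 1640 + 10% FBS; CTMs 10 uM–0.1 nM, 11 pts; 24 hrs, 37° C/5% CO2; lytic HiBiT luminescence; % remaining vs DMSO, parental background subtracted; 4-parameter fit → DC50, Dmax.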

T1 sequence (Q92918 whole entry): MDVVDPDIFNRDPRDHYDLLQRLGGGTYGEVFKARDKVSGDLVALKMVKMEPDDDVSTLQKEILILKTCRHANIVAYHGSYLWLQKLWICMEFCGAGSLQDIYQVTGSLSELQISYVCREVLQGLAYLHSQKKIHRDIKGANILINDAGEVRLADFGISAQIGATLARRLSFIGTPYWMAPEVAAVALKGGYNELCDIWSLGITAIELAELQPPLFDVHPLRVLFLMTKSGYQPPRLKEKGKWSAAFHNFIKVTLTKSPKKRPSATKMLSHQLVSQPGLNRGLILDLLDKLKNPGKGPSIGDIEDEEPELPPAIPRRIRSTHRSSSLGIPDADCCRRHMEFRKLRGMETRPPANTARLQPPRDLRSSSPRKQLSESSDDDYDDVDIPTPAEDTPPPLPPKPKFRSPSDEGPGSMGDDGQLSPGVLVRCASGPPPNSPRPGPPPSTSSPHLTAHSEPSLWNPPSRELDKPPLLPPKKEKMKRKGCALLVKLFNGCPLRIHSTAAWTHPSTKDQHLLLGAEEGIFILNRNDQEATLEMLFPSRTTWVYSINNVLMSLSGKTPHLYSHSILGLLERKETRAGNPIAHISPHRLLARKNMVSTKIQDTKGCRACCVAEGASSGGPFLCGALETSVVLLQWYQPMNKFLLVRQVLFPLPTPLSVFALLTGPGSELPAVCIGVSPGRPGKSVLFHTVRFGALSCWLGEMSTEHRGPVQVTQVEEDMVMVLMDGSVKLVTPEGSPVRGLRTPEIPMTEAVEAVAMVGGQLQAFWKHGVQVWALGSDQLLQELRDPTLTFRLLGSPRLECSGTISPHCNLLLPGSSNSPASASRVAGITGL

SMILES	DC50	Dmax
CC(C)n1cnc2cc(-c3ccc4c(c3)N([C@H]3C[C@@H](N5CCCCC5)C3)C(=O)C43CCN(C(=O)[C@@H]4CCN(C(=O)[C@H]5CC[C@H](Oc6ccc(C7CCC(=O)NC7=O)cn6)CC5)C4)CC3)nc(NC3CCOCC3)c21 (mixture of isomers) [Example 19, (3RS)-3-(6-{[(1R,4R)-4-[(3R)-3-[(6-{4-[(oxan-4-yl)amino]-3-(propan-2-yl)-3H-imidazo[4,5-c]pyridin-6-yl}-2-oxo-1-[(1S,3S)-3-(piperidin-1-yl)cyclobutyl]-1,2-dihydrospiro[indole-3,4′-piperidin]-1′-yl)carbonyl]pyrrolidine-1-carbonyl]cyclohexyl]oxy}pyridin-3-yl)piperidine-2,6-dione]	< 100 nM	70 to 85%
CC(C)n1cnc2cc(-c3ccc4c(c3)N([C@H]3C[C@@H](N5CCCCC5)C3)C(=O)C43CCN(C(=O)C45CC(CN(C(=O)C6CCN(c7ccc(C8CCC(=O)NC8=O)cn7)CC6)C4)C5)CC3)nc(NC3CC3)c21 (mixture of isomers) [Example 271, (3RS)-3-(6-{4-[1-({6-[4-(cyclopropylamino)-3-(propan-2-yl)-3H-imidazo[4,5-c]pyridin-6-yl]-2-oxo-1-[(1S,3S)-3-(piperidin-1-yl)cyclobutyl]-1,2-dihydrospiro[indole-3,4′-piperidin]-1′-yl}carbonyl)-3-azabicyclo[3.1.1]heptane-3-carbonyl]piperidin-1-yl}pyridin-3-yl)piperidine-2,6-dione]	< 100 nM	70 to 85%
CC(C)n1cnc2cc(-c3ccc4c(c3)N([C@H]3C[C@@H](N5CCCCC5)C3)C(=O)C43CCN(C(=O)C4(C)CCN(C(=O)C5CCN(c6ccc(C7CCC(=O)NC7=O)cn6)CC5)CC4)CC3)nc(Nc3ccccc3F)c21 (mixture of isomers) [Example 114, (3RS)-3-[6-(4-{4-[(6-{4-[(2-fluorophenyl)amino]-3-(propan-2-yl)-3H-imidazo[4,5-c]pyridin-6-yl}-2-oxo-1-[(1S,3S)-3-(piperidin-1-yl)cyclobutyl]-1,2-dihydrospiro[indole-3,4′-piperidin]-1′-yl)carbonyl]-4-methylpiperidine-1-carbonyl}piperidin-1-yl)pyridin-3-yl]piperidine-2,6-dione]	< 100 nM	70 to 85%
CC(C)n1cnc2cc(-c3ccc4c(c3)N([C@H]3C[C@@H](N5CCCCC5)C3)C(=O)C43CCN(C(=O)C4CCN(C(=O)C5CCN(c6ccc(N7CCC(=O)NC7=O)cn6)CC5)CC4)CC3)nc(Nc3ccccc3F)c21 [Example 80, 1-[6-(4-{4-[(6-{4-[(2-fluorophenyl)amino]-3-(propan-2-yl)-3H-imidazo[4,5-c]pyridin-6-yl}-2-oxo-1-[(1S,3S)-3-(piperidin-1-yl)cyclobutyl]-1,2-dihydrospiro[indole-3,4′-piperidin]-1′-yl)carbonyl]piperidine-1-carbonyl}piperidin-1-yl)pyridin-3-yl]-1,3-diazinane-2,4-dione]	< 100 nM	70 to 85%
CC(C)n1cnc2cc(-c3ccc4c(c3)N([C@H]3C[C@@H](N5CCCCC5)C3)C(=O)C43CCN(C(=O)C4(C)CCN(C(=O)C5CCN(c6ccc(C7CCC(=O)NC7=O)nc6)CC5)CC4)CC3)nc(Nc3ccccc3F)c21 (mixture of isomers) [Example 119, (3RS)-3-[5-(4-{4-[(6-{4-[(2-fluorophenyl)amino]-3-(propan-2-yl)-3H-imidazo[4,5-c]pyridin-6-yl}-2-oxo-1-[(1S,3S)-3-(piperidin-1-yl)cyclobutyl]-1,2-dihydrospiro[indole-3,4′-piperidin]-1′-yl)carbonyl]-4-methylpiperidine-1-carbonyl}piperidin-1-yl)pyridin-2-yl]piperidine-2,6-dione]	< 100 nM	70 to 85%
CC(C)n1cnc2cc(-c3ccc4c(c3)N([C@H]3C[C@@H](N5CCCCC5)C3)C(=O)C43CCN(C(=O)[C@@H]4CCN(C(=O)[C@H]5CC[C@H](Oc6ccc(N7CCC(=O)NC7=O)cn6)CC5)C4)CC3)nc(NC3CC3)c21 [Example 20, 1-(6-{[(1R,4R)-4-[(3R)-3-({6-[4-(cyclopropylamino)-3-(propan-2-yl)-3H-imidazo[4,5-c]pyridin-6-yl]-2-oxo-1-[(1S,3S)-3-(piperidin-1-yl)cyclobutyl]-1,2-dihydrospiro[indole-3,4′-piperidin]-1′-yl}carbonyl)pyrrolidine-1-carbonyl]cyclohexyl]oxy}pyridin-3-yl)-1,3-diazinane-2,4-dione]	< 100 nM	70 to 85%
CC(C)n1cnc2cc(-c3ccc4c(c3)N([C@H]3C[C@@H](N5CCCCC5)C3)C(=O)C43CCN(C(=O)c4cc(C(=O)N5CCN(c6ccc7c(c6)C(=O)N(C6CCC(=O)NC6=O)C7=O)CC5)n(C)n4)CC3)nc(Nc3ccccc3F)c21 (mixture of isomers) [Example 146, 2-[(3RS)-2,6-dioxopiperidin-3-yl]-5-(4-{3-[(6-{4-[(2-fluorophenyl)amino]-3-(propan-2-yl)-3H-imidazo[4,5-c]pyridin-6-yl}-2-oxo-1-[(1S,3S)-3-(piperidin-1-yl)cyclobutyl]-1,2-dihydrospiro[indole-3,4′-piperidin]-1′-yl)carbonyl]-1-methyl-1H-pyrazole-5-carbonyl}piperazin-1-yl)-2,3-dihydro-1H-isoindole-1,3-dione]	100 to 500 nM	70 to 85%
CC(C)n1cnc2cc(-c3ccc4c(c3)N([C@H]3C[C@@H](N5CCCCC5)C3)C(=O)C43CCN(C(=O)C4CCN(C[C@H]5CC[C@H](C(=O)N6CCc7cc(C8CCC(=O)NC8=O)ccc7C6)CC5)CC4)CC3)nc(Nc3ccccc3F)c21 (mixture of isomers) [Example 46]	100 to 500 nM	> 85%
CC(C)n1cnc2cc(-c3ccc4c(c3)N([C@H]3C[C@@H](N5CCCCC5)C3)C(=O)C43CCN(C(=O)C45CN(C(=O)C6CCN(c7ccc(C8CCC(=O)NC8=O)cn7)CC6)CC(F)(C4)C5)CC3)nc(NC3CC3)c21 (mixture of isomers) [Example 279, (3RS)-3-(6-{4-[1-({6-[4-(cyclopropylamino)-3-(propan-2-yl)-3H-imidazo[4,5-c]pyridin-6-yl]-2-oxo-1-[(1S,3S)-3-(piperidin-1-yl)cyclobutyl]-1,2-dihydrospiro[indole-3,4′-piperidin]-1′-yl}carbonyl)-5-fluoro-3-azabicyclo[3.1.1]heptane-3-carbonyl]piperidin-1-yl}pyridin-3-yl)piperidine-2,6-dione]	< 100 nM	70 to 85%

Further lines, results first:

DC50	Dmax	SMILES
100 to 500 nM	50 to 70%	COC1CC(C(=O)N2CCC3(CC2)C(=O)N([C@H]2C[C@@H](N4CCCCC4)C2)c2cc(-c4cc5ncn(C(C)C)c5c(NC5CC5)n4)ccc23)CN(C(=O)C2CCN(c3ccc(C4CCC(=O)NC4=O)cn3)CC2)C1 (mixture of isomers) [Example 256, (3RS)-3-(6-{4-[3-({6-[4-(cyclopropylamino)-3-(propan-2-yl)-3H-imidazo[4,5-c]pyridin-6-yl]-2-oxo-1-[(1S,3S)-3-(piperidin-1-yl)cyclobutyl]-1,2-dihydrospiro[indole-3,4′-piperidin]-1′-yl}carbonyl)-5-methoxypiperidine-1-carbonyl]piperidin-1-yl}pyridin-3-yl)piperidine-2,6-dione]
100 to 500 nM	70 to 85%	CC(C)n1cnc2cc(-c3ccc4c(c3)N([C@H]3C[C@@H](N5CCCCC5)C3)C(=O)C43CCN(C(=O)C4CCC5(CCN(C(=O)C6CCN(c7ccc(C8CCC(=O)NC8=O)cn7)CC6)CC5)C4)CC3)nc(NC3CC3)c21 (mixture of isomers) [Example 294, (3RS)-3-(6-{4-[2-({6-[4-(cyclopropylamino)-3-(propan-2-yl)-3H-imidazo[4,5-c]pyridin-6-yl]-2-oxo-1-[(1S,3S)-3-(piperidin-1-yl)cyclobutyl]-1,2-dihydrospiro[indole-3,4′-piperidin]-1′-yl}carbonyl)-8-azaspiro[4.5]decane-8-carbonyl]piperidin-1-yl}pyridin-3-yl)piperidine-2,6-dione]
< 100 nM	70 to 85%	CC(C)n1cnc2cc(-c3ccc4c(c3)N([C@H]3C[C@@H](N5CCCCC5)C3)C(=O)C43CCN(C(=O)[C@@]45C[C@@H]4CN(C(=O)C4CCN(c6ccc(C7CCC(=O)NC7=O)cn6)CC4)C5)CC3)nc(NC3CC3)c21 (mixture of isomers) [Example 259, (3RS)-3-(6-{4-[(1S,5S)-1-({6-[4-(cyclopropylamino)-3-(propan-2-yl)-3H-imidazo[4,5-c]pyridin-6-yl]-2-oxo-1-[(1S,3S)-3-(piperidin-1-yl)cyclobutyl]-1,2-dihydrospiro[indole-3,4′-piperidin]-1′-yl}carbonyl)-3-azabicyclo[3.1.0]hexane-3-carbonyl]piperidin-1-yl}pyridin-3-yl)piperidine-2,6-dione]
< 100 nM	70 to 85%	CC1CN(C(=O)C2CCN(c3ccc(C4CCC(=O)NC4=O)cn3)CC2)CCC1C(=O)N1CCC2(CC1)C(=O)N([C@H]1C[C@@H](N3CCCCC3)C1)c1cc(-c3cc4ncn(C(C)C)c4c(NC4CC4)n3)ccc12 (mixture of isomers) [Example 253, (3RS)-3-(6-{4-[4-({6-[4-(cyclopropylamino)-3-(propan-2-yl)-3H-imidazo[4,5-c]pyridin-6-yl]-2-oxo-1-[(1S,3S)-3-(piperidin-1-yl)cyclobutyl]-1,2-dihydrospiro[indole-3,4′-piperidin]-1′-yl}carbonyl)-3-methylpiperidine-1-carbonyl]piperidin-1-yl}pyridin-3-yl)piperidine-2,6-dione]
< 100 nM	70 to 85%	CC(C)n1cnc2cc(-c3ccc4c(c3)N([C@H]3C[C@@H](N5CCCCC5)C3)C(=O)C43CCN(C(=O)C4CCN(C(=O)C5CCN(c6ccc(C7CCC(=O)NC7=O)c(F)c6)CC5)CC4)CC3)nc(NC3CC3)c21 (mixture of isomers) [Example 237, (3RS)-3-(4-{4-[4-({6-[4-(cyclopropylamino)-3-(propan-2-yl)-3H-imidazo[4,5-c]pyridin-6-yl]-2-oxo-1-[(1S,3S)-3-(piperidin-1-yl)cyclobutyl]-1,2-dihydrospiro[indole-3,4′-piperidin]-1′-yl}carbonyl)piperidine-1-carbonyl]piperidin-1-yl}-2-fluorophenyl)piperidine-2,6-dione]
